Measured values reported in patent US7601333B2, “Use of a tetrapeptide AcSDKP (SEQ ID No. 1) analog resistant to the angiotensin I converting enzyme for measuring glomerular filtration rate in a human or an animal and kit containing same” (Assistance Publique-Hopitaux de Paris, priority 2003, dated 2009).
Where “and” joins values, the source holds several entries; their conditions need not be identical. Equal values may be shown once. Read-outs that look alike come from different tables or passages of the source. Residues, ends and D or L forms follow the SMILES beside them.

What was measured:
human ACE [1] = biological target: human ACE (Homo sapiens, UniProt P12821); assay: In vitro degradation in the presence of human ACE; format: in vitro ADME
Sequence of human ACE (Homo sapiens, UniProt P12821) (P12821 30-1306): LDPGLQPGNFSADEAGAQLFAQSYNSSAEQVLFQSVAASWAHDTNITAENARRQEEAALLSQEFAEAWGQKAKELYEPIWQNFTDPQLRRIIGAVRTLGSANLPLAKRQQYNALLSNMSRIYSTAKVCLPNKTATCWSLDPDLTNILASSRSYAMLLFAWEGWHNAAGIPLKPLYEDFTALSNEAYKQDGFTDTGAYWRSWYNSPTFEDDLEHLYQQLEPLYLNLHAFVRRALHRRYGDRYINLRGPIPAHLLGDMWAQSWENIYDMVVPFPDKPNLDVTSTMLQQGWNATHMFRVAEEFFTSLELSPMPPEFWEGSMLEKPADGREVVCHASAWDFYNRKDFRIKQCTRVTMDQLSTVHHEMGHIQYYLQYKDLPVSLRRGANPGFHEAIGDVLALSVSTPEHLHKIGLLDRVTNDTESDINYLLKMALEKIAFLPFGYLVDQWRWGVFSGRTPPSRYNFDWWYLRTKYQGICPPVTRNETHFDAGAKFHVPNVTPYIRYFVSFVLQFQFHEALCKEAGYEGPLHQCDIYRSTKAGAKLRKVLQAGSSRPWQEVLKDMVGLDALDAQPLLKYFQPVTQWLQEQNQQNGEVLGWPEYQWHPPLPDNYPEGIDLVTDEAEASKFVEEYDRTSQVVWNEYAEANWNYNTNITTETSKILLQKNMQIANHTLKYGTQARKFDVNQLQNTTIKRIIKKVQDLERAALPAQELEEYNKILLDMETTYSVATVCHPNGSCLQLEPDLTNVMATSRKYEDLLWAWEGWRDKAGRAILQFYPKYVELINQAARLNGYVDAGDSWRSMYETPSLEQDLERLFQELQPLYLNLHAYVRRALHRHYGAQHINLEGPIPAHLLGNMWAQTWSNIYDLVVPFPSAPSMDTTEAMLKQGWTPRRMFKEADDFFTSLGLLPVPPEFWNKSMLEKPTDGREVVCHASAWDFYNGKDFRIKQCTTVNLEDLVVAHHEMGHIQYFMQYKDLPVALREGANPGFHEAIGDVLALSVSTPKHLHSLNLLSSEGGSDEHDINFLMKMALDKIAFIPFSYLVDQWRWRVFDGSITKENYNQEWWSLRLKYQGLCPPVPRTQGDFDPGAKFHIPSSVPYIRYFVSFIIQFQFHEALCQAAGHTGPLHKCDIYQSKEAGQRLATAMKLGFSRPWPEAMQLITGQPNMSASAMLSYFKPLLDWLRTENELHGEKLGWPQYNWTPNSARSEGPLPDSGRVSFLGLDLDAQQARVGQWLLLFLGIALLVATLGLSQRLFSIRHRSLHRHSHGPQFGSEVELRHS
Description: (§1) The peptides (100 nM) were incubated with ground rat lung material (at 0.1 mg/ml) or human converting enzyme (5 mU final concentration) in the presence or absence of captopril (10 μM final concentration) in 0.1 M Tris/HCl buffer+0.3 mM NaCl, pH=7.5. A control comprising only the peptides in the presence of 0.1 M Tris/HCl buffer+0.3 mM NaCl, pH=7.5, was carried out.
(§2) A methanol extraction was carried out in order to stop the reaction. At each time, the concentration of the nondegraded peptide was measured by enzyme immunoassay.
(§3) The results were expressed as percentage of peptide assayed relative to the control for each sample time.

human ACE [2] = assay: In vitro degradation in the presence of human ACE; format: in vitro ADME; details: human converting enzyme (human ACE), peptide 100 nM, human converting enzyme 5 mU, pH 7.5, read-out: percentage of peptide assayed relative to the control; for remaining at 10 min, 100 nM: T10 min; for remaining at 1 h, 100 nM: T60 min; for remaining at 2 h, 100 nM: T120 min; for remaining at 4 h, 100 nM: T240 min; for remaining at 24 h, 100 nM: T1440 min
Description: as §1, §2, §3

in vivo = details: male, Wistar, rat, plasma, iv
[3] = Plasma and urine pharmacokinetics after I.V. bolus in rats; details: for % excreted: urine; for Renal clearance: summarizing table, i.v. bolus
ACE (rat lung) = system: T1, ACE (rat lung); assay: In vitro degradation in the presence of rat lung ACE; format: in vitro ADME; details: ground rat lung material (rat lung ACE), peptide 100 nM, ground rat lung material 0.1 mg/ml, pH 7.5, read-out: percentage of peptide assayed relative to the control; for remaining at 2 h, 100 nM: T120 min
T1 construct: incubated with ground rat lung material (at 0.1 mg/ml); from tissue; host or cells: rat lung (ground material)
Description: as §1, §2, §3

[4] = with captopril 10 μM, + captopril 10 μM
[5] = Group 3, i.v. bolus, without captopril, 24-48 h, single rats
[6] = Group 3, i.v. bolus, without captopril, mean
[7] = Group 3, i.v. bolus, without captopril, single rats
[8] = Group 4, i.v. bolus, with captopril, 4-24 h, single rats
[9] = Group 4, i.v. bolus, with captopril, 48-72 h, single rats
[10] = Group 4, i.v. bolus, with captopril, mean
[11] = Group 4, i.v. bolus, with captopril, single rats

- degradation by ACE of human origin (human ACE [1]; in vitro): does not appear to be degraded
- concentrations found (human ACE [1]; in vitro, relative to control): 100±25%
- percentage of peptide assayed relative to the control (human ACE [1]; peptide 100 nM, human converting enzyme 5 mU, pH 7.5, T30 min, + captopril 10 μM): 162%
- remaining at 10 min, 100 nM (human ACE [2]; [4]): 90%
- remaining at 1 h, 100 nM (human ACE [2]; [4]): 78%
- remaining at 2 h, 100 nM (human ACE [2]; [4]): 95%
- remaining at 4 h, 100 nM (human ACE [2]; [4]): 104%
- remaining at 24 h, 100 nM (human ACE [2]; [4]): 117%
- remaining at 10 min, 100 nM (human ACE [2]; without captopril): 79%
- remaining at 0.5 h, 100 nM (human ACE [2]; T30 min, without captopril): 100%
- remaining at 1 h, 100 nM (human ACE [2]; without captopril): 116%
- remaining at 2 h, 100 nM (human ACE [2]; without captopril): 116%
- remaining at 4 h, 100 nM (human ACE [2]; without captopril): 107%
- remaining at 24 h, 100 nM (human ACE [2]; without captopril): 86%
- AUC0-inf (in vivo): 1490 ng·h/mL
- Vd (in vivo): 0.284 L/kg
- clearance (in vivo): 8.1 mL/min/kg
- half-life (in vivo): 23.1 min
- level at 5 min (in vivo): 3400 ng/mL
- level at 10 min (in vivo): 2680 ng/mL
- level at 0.25 h (in vivo): 1720 ng/mL
- level at 0.5 h (in vivo): 1010 ng/mL
- level at 1 h (in vivo): 450 ng/mL
- level at 2 h (in vivo): 82 ng/mL
- level at 4 h (in vivo): 3 ng/mL
- AUC0-inf (in vivo; 0.82 mg/kg): 1230 ng·h/mL
- Vd (in vivo; 0.82 mg/kg): 0.338 L/kg
- half-life (in vivo; 0.82 mg/kg): 23.3 min
- level at 5 min (in vivo; 0.82 mg/kg): 2830 ng/mL
- level at 10 min (in vivo; 0.82 mg/kg): 2330 ng/mL
- level at 3 h (in vivo; 0.82 mg/kg): 16 ng/mL
- level at 4 h (in vivo; 0.82 mg/kg): 3 ng/mL
- AUC0-inf (in vivo; 1 mg/kg): 1650 ng·h/mL
- Vd (in vivo; 1 mg/kg): 0.266 L/kg
- clearance (in vivo; 1 mg/kg): 8.1 mL/min/kg
- Q in urine ([3]; Group 3, i.v. bolus, without captopril, 0-2 h, single rats): 175685.1 ng and 0.0 ng (5×)
- Concentration in urine [3, 5]: ILQ
- Concentration in plasma ([3]; Group 3, i.v. bolus, without captopril, 300 min, single rats): ILQ
- CLR [3, 6]: 7.59 mL/min/kg
- Ctotal dose/AUC [3, 6]: 8.08 mL/min/kg
- % excreted [3, 6]: 92.67%
- % excreted [3, 7]: 120.7%
- Concentration in urine [3, 8]: 11032 ng/mL
- Concentration in urine [3, 9]: ILQ and 11 ng/ml
- Concentration in plasma ([3]; Group 4, i.v. bolus, with captopril, 15 min, mean): 1874 ng/mL
- Concentration in plasma ([3]; Group 4, i.v. bolus, with captopril, 30 min, mean): 1213 ng/mL
- Concentration in plasma ([3]; Group 4, i.v. bolus, with captopril, 60 min, mean): 453 ng/mL
- Concentration in plasma ([3]; Group 4, i.v. bolus, with captopril, 120 min, mean): 74 ng/mL
- Concentration in plasma ([3]; Group 4, i.v. bolus, with captopril, 180 min, mean): 15 ng/mL
- Concentration in plasma ([3]; Group 4, i.v. bolus, with captopril, 240 min, single rats): 2 ng/ml (2×) and 3 ng/ml (3×)
- Concentration in plasma ([3]; Group 4, i.v. bolus, with captopril, 300 min, mean): 0 ng/mL
- Concentration in plasma ([3]; Group 4, i.v. bolus, with captopril, 300 min, single rats): ILQ (4×) and 0 ng/ml
- AUC0-INF [3, 10]: 110097 ng·min/mL
- CLR [3, 10]: 8.03 mL/min/kg
- Ctotal dose/AUC [3, 10]: 8.06 mL/min/kg
- Vd [3, 10]: 0.269 L/kg
- t½ [3, 11]: 21.9 min and 23.0 min and 24.1 min
- % excreted [3, 10]: 98.76%
- GFR measured after administration, difference between the groups of rats ([3]; rats): does not differ significantly
- degradation in vivo by ACE or other enzyme systems ([3]; rats): not degraded in vivo
- mean AUC of group without captopril less than group with captopril ([3]; rats, mean injected dose 11% higher with captopril): approximately 10%
- Renal clearance ([3]; rats, with captopril): 8.0 mL/min/kg
- Renal clearance ([3]; rats, without captopril): 7.6 mL/min/kg
- remaining at 2 h, 100 nM (ACE (rat lung); [4]): 109%
- remaining at 0.5 h, 100 nM (ACE (rat lung); T30 min, without captopril): 100%
- remaining at 1 h, 100 nM (ACE (rat lung); T60 min, without captopril): 65%
- remaining at 2 h, 100 nM (ACE (rat lung); without captopril): 95%
SMILES: CC(=O)N[C@@H](CO)C(=O)N[C@@H](CC(=O)O)C(=O)N[C@@H](CCCCN)C(=O)N1CCC[C@H]1C(N)=O [AcSDKP-NH2, N-acetyl-Ser-Asp-Lys-Pro-NH2] (Ac-SDKP-NH2)
- Q in urine ([3]; Group 3, i.v. bolus, without captopril, 2-4 h, single rats): 0.0 ng (3×) and 180325.8 ng and 141210.2 ng and 290581.1 ng
- Q in urine ([3]; Group 3, i.v. bolus, without captopril, 4-7 h, single rats): 84030.9 ng and 23548.7 ng and 0.0 ng (4×)
- Q in urine ([3]; Group 3, i.v. bolus, without captopril, 7-24 h, single rats): 16014.8 ng and 8570.5 ng and 211497.2 ng and 41898.9 ng and 29223.7 ng and 159391.7 ng
- Q in urine [3, 5]: 513.0 ng and 1304.8 ng and 47218.0 ng and 603.6 ng and ILQ and 3161.4 ng
- Concentration in plasma ([3]; Group 3, i.v. bolus, without captopril, 5 min, single rats): 2581 ng/mL and 3139 ng/mL and 2865 ng/mL and 2491 ng/mL and 3250 ng/mL and 2663 ng/mL
- Concentration in plasma ([3]; Group 3, i.v. bolus, without captopril, 10 min, single rats): 1611 ng/mL and 2288 ng/mL and 2425 ng/mL and 2152 ng/mL and 2918 ng/mL and 2595 ng/mL
- Concentration in plasma ([3]; Group 3, i.v. bolus, without captopril, 15 min, single rats): 1655 ng/mL and 985 ng/mL and 2204 ng/mL and 1796 ng/mL and 1930 ng/mL and 1750 ng/mL
- Concentration in plasma ([3]; Group 3, i.v. bolus, without captopril, 30 min, single rats): 748 ng/mL and 880 ng/mL and 1317 ng/mL and 1329 ng/mL and 930 ng/mL and 867 ng/mL
- Concentration in plasma ([3]; Group 3, i.v. bolus, without captopril, 60 min, single rats): 233 ng/mL and 443 ng/mL and 598 ng/mL and 545 ng/mL and 416 ng/mL and 463 ng/mL
- Concentration in plasma ([3]; Group 3, i.v. bolus, without captopril, 120 min, single rats): 47 ng/mL and 45 ng/mL and 163 ng/mL and 118 ng/mL and 48 ng/mL and 69 ng/mL
- Concentration in plasma ([3]; Group 3, i.v. bolus, without captopril, 240 min, single rats): ILQ (2×) and 3 ng/ml and 5 ng/ml and 2 ng/ml and 4 ng/ml
- AUC0-INF [3, 7]: 87407 ng·min/mL and 125025 ng·min/mL and 111894 ng·min/mL and 101003 ng·min/mL and 96190 ng·min/mL
- CLR [3, 7]: 11.8 mL/min/kg and 7.7 mL/min/kg and 6.4 mL/min/kg and 4.9 mL/min/kg and 9.8 mL/min/kg and 5.0 mL/min/kg
- Ctotal dose/AUC [3, 7]: 11.3 mL/min/kg and 9 mL/min/kg and 6.2 mL/min/kg and 6.5 mL/min/kg and 8.1 mL/min/kg and 7.2 mL/min/kg
- Q in urine total [3, 7]: 276243.9 ng and 213749.7 ng and 258715.2 ng and 183712.7 ng and 319804.8 ng and 162553.1 ng
- Vd [3, 7]: 0.27 L/kg and 0.22 L/kg and 0.253 L/kg and 0.256 L/kg and 0.261 L/kg
- t½ [3, 7]: 20.7 min (2×) and 24.5 min and 26.8 min and 21.8 min and 25.1 min
- Q in urine [3, 8]: 208504.2 ng and 144361.5 ng and 286064.8 ng and 274157.3 ng and 353834.5 ng
- Q in urine ([3]; Group 4, i.v. bolus, with captopril, 24-48 h, single rats): 10737.7 ng and 2183.9 ng and 16360.4 ng and 10087.6 ng and 6728.5 ng
- Q in urine [3, 9]: 758.4 ng and ILQ and 619.3 ng and 4008.3 ng and 0.0 ng
- Concentration in plasma ([3]; Group 4, i.v. bolus, with captopril, 5 min, single rats): 3623 ng/mL and 3115 ng/mL and 4099 ng/mL and 2863 ng/mL and 3280 ng/mL
- Concentration in plasma ([3]; Group 4, i.v. bolus, with captopril, 10 min, single rats): 1750 ng/mL and 3571 ng/mL and 3075 ng/mL and 2682 ng/mL and 2346 ng/mL
- Concentration in plasma ([3]; Group 4, i.v. bolus, with captopril, 15 min, single rats): 1432 ng/mL and 1978 ng/mL and 2363 ng/mL and 1635 ng/mL and 1960 ng/mL
- Concentration in plasma ([3]; Group 4, i.v. bolus, with captopril, 30 min, single rats): 1128 ng/mL and 891 ng/mL and 1173 ng/mL and 889 ng/mL and 1986 ng/mL
- Concentration in plasma ([3]; Group 4, i.v. bolus, with captopril, 60 min, single rats): 312 ng/mL and 338 ng/mL and 346 ng/mL and 357 ng/mL and 910 ng/mL
- Concentration in plasma ([3]; Group 4, i.v. bolus, with captopril, 120 min, single rats): 31 ng/mL and 63 ng/mL and 64 ng/mL and 73 ng/mL and 140 ng/mL
- Concentration in plasma ([3]; Group 4, i.v. bolus, with captopril, 180 min, single rats): 7 ng/mL and 11 ng/mL and 18 ng/mL and 16 ng/mL and 23 ng/mL
- AUC0-INF [3, 11]: 100543 ng·min/mL and 114983 ng·min/mL and 92278 ng·min/mL and 153339 ng·min/mL
- CLR [3, 11]: 8.2 mL/min/kg and 4.7 mL/min/kg and 9.1 mL/min/kg and 10.6 mL/min/kg and 7.6 mL/min/kg
- Ctotal dose/AUC [3, 11]: 9.0 mL/min/kg and 6.9 mL/min/kg and 7.8 mL/min/kg and 9.4 mL/min/kg and 7.2 mL/min/kg
- Q in urine total [3, 11]: 220000 ng and 146545.0 ng and 303045 ng and 288253 ng and 360563 ng
- Vd [3, 11]: 0.23 L/kg and 0.26 L/kg and 0.327 L/kg and 0.242 L/kg
- excretion in the urine ([3]; rats): completely excreted in the urine without being reabsorbed or secreted
